Results: patent publication US20030073672A1, “Method for treating allergies using substituted pyrazoles” (priority 2001, published 2003)

Experiments:
allergic volunteers = test: Monitoring in vivo inhibition of allergenic response (cutaneous reactions); conditions: allergens deposited subcutaneously
[1] = system: human T cell proliferative responses to house dust mite extracts (Der p, Der f) in PBMC; test: Ex vivo human T cell-proliferation assay, house dust mite extracts; format: cell-based; conditions: seven days; for human T cell proliferative responses to Der f: PBMC from an allergy donor, Der f extract, titrated doses of compound, FIG. 3
Excerpt: This proliferation consisted primarily of allergen-specific CD4 T cells.

[2] = system: T cell proliferative responses induced by ConA in PBMC; test: Ex vivo human T cell-proliferation assay, ConA control; format: cell-based; conditions: PBMC of allergic donors, a pan-T cell mitogen
Excerpt: Reagents. […] Cell culture.

[3] = system: human T cell proliferative responses to ragweed extracts (short, giant) in PBMC; test: Ex vivo human T cell-proliferation assay, ragweed extracts; conditions: PBMC of ragweed-allergic donors, short and giant ragweed extracts, FIG. 2B
[4] = system: invariant chain (Ii) degradation, p10Ii fragment, in PBMC from human blood; test: Monitoring cathepsin S inhibition in human blood (p10Ii Western blot); format: cell-based; conditions: incubation for 24 h, SDS-PAGE / Western blot
Experimental: The effect of in vivo administration of cathepsin S inhibitors, in a clinical trial setting, can be monitored by measuring accumulation of an intermediate degradation product of invariant chain (Ii), i.e. the p10Ii fragment, in blood of dosed subjects. After administration of a cathepsin inhibitor for a certain period of time, for example, between 0.01 and 50 mg/kg/day, to result in a blood concentration of between 1 nM-10 μM, for 16-30 h, blood is drawn and white blood cells are purified, e.g. either by lysis of red blood cells or by a Ficoll-Hypaque gradient centrifugation. Whole cell lysates of WBC are then made and analyzed by either a Western blot assay or an ELISA assay. For the Western blot assay, cell lysates are first resolved on SDS-PAGE gels. After transferring to nitrocellulose membranes, Ii and its intermediate degradation products, including the p10Ii, can be detected using a mouse mAb against Ii, e.g. Pin.1, or rabbit polyclonal antibodies specific for the C-terminus of the p10Ii fragment or against the entire p10Ii fragment. For ELISA assay, a pair of antibodies against Ii, including Pin1.1, and a rabbit polyclonal antibody or a mouse monoclonal antibody specific for p10Ii, can be used. The same assay can also be applied to monitor the effect of cathepsin S inhibitors in vivo in animal studies, for example in monkeys, dogs, pigs, rabbits, guinea pigs, and rodents.

| SMILES | immediate weal and flare response (allergic volunteers; 15 min) | late phase response (induration) (allergic volunteers; 6 h and 24 h) | T cell proliferation (3H-thymidine incorporation) induced by HDM extracts ([1]; PBMC of HDM-allergic donors, Der p or Der f extracts, FIG. 1B) | T cell proliferative responses induced by ConA [2] | T cell proliferation (3H-thymidine incorporation) induced by ragweed extracts [3] | p10Ii fragment accumulation (block in the degradation of Ii) [4] | human T cell proliferative responses to Der f [1] |
| --- | --- | --- | --- | --- | --- | --- | --- |
| C[C@]12C=CC(=O)C=C1CC[C@@H]1[C@@H]2C(=O)C[C@@]2(C)[C@H]1CC[C@]2(O)C(=O)CO [Prednisone, prednisone] | inhibit both the immediate and the late phase responses | inhibit both the immediate and the late phase responses |  |  |  |  |  |
| CC(C)C[C@H](NC(=O)N1CCOCC1)C(=O)N[C@H](/C=C/S(=O)(=O)c1ccccc1)CCc1ccccc1 [LHVS, 4-morpholinecarboxamide, N-[(1S)-3-methyl-1-[[[(1S,2E)-1-(2-phenylethyl)-3-(phenylsulfonyl)-2-propenyl]amino]carbonyl]butyl]-] |  |  | strongly inhibited | not affected | strongly inhibited | the p10Ii fragment was seen |  |
| N#Cc1ccccc1N1CCN(CC(Cn2nc(-c3ccc(I)cc3)c3c2CCN(C(N)=O)C3)OC(N)=O)CC1 (stereo not shown) [Example 11, Carbamic acid 1-[5-carbamoyl-3-(4-iodo-phenyl)-4,5,6,7-tetrahydro-pyrazolo[4,3-c]pyridin-1-ylmethyl]-2-[4-(2-cyano-phenyl)-piperazin-1-yl]-ethyl Ester] |  |  |  | but not ConA |  |  | inhibition |
| CS(=O)(=O)N1CCc2c(c(-c3ccc(I)cc3)nn2CC(O)CN2CCN(c3ccccc3C#N)CC2)C1 (stereo not shown) [Example 36, 2-(4-{2-Hydroxy-3-[3-(4-iodo-phenyl)-5-methanesulfonyl-4,5,6,7-tetrahydro-pyrazolo[4,3-c]pyridin-1-yl]-propyl}-piperazin-1-yl)-benzonitrile] |  |  |  | but not ConA |  |  | inhibition |
